Data on 4 compounds can be found in ChEMBL document CHEMBL4715829, “Heterodimeric Rifampicin-Tobramycin conjugates break intrinsic resistance of Pseudomonas aeruginosa to doxycycline and chloramphenicol in vitro and in a Galleria mellonella in vivo model” (Eur J Med Chem, 2019).

The subject of series [1] is Pseudomonas aeruginosa. Briefly: Antibacterial activity against Pseudomonas aeruginosa 101243 assessed as potentiation of doxycycline-induced antibacterial activity by measuring doxycycline MIC at 9.8 uM incubated for 18 hrs in presence of doxycycline by broth microdilution assay (reference value: 4 ug/ml). In kind it is functional.
In series [2] the test system is Pseudomonas aeruginosa. Briefly: Antibacterial activity against Pseudomonas aeruginosa 101885 assessed as fractional inhibitory concentration incubated for 18 hrs in presence of minocycline by broth microdilution assay. In kind it is functional. Background: In broth dilution the organism is exposed to a series of concentrations in liquid medium.
For series [3], the system named is Pseudomonas aeruginosa. Briefly: Antibacterial activity against Pseudomonas aeruginosa 259-96918 assessed as fractional inhibitory concentration incubated for 18 hrs in presence of minocycline by broth microdilution assay. In kind it is functional.
In series [4] the test system is Pseudomonas aeruginosa. Description: Antibacterial activity against Pseudomonas aeruginosa 260-97103 assessed as fractional inhibitory concentration incubated for 18 hrs in presence of minocycline by broth microdilution assay. In kind it is functional.
In series [5] the test system is Pseudomonas aeruginosa. Description: Antibacterial activity against Pseudomonas aeruginosa 264-101354 assessed as fractional inhibitory concentration incubated for 18 hrs in presence of tigecycline by broth microdilution assay. Format: functional.
The test system of series [6] is Pseudomonas aeruginosa. Briefly: Antibacterial activity against Pseudomonas aeruginosa 101243 assessed as fractional inhibitory concentration incubated for 18 hrs in presence of rifampicin by broth microdilution assay. In kind it is functional.
In series [7] the test system is Pseudomonas aeruginosa. Briefly: Antibacterial activity against Pseudomonas aeruginosa 100036 assessed as fractional inhibitory concentration index incubated for 18 hrs in presence of tigecycline by broth microdilution assay. Format: functional.
Series [8] has as its system Pseudomonas aeruginosa. Description: Antibacterial activity against Pseudomonas aeruginosa 260-97103 assessed as fractional inhibitory concentration index incubated for 18 hrs in presence of rifampicin by broth microdilution assay. Format: functional.
Series [9] deals with Pseudomonas aeruginosa. Briefly: Antibacterial activity against Pseudomonas aeruginosa 264-101354 assessed as fractional inhibitory concentration index incubated for 18 hrs in presence of minocycline by broth microdilution assay. Format: functional.
In series [10] the test system is Pseudomonas aeruginosa. Description: Antibacterial activity against Pseudomonas aeruginosa 91433 assessed as fractional inhibitory concentration index incubated for 18 hrs in presence of tigecycline by broth microdilution assay. Format: functional.
For series [11], the system named is Pseudomonas aeruginosa. Description: Antibacterial activity against Pseudomonas aeruginosa 114228 assessed as fractional inhibitory concentration index incubated for 18 hrs in presence of rifampicin by broth microdilution assay. In kind it is functional.
Series [12] relates to Pseudomonas aeruginosa. Description: Antibacterial activity against Pseudomonas aeruginosa 260-97103 infected in Galleria mellonella larvae assessed as survival of larvae treated at 3 hrs post-infection in presence of chloramphenicol and measured every 6 hrs for 36 hrs. Format: functional, organism-based. Particulars: dose 75-100 mg/kg.
Series [13] concerns Pseudomonas aeruginosa. Briefly: Potentiation of doxycycline-induced antibacterial activity against Pseudomonas aeruginosa 264-101354 assessed as fold change in doxycycline MIC at 9.8 uM incubated for 18 hrs in presence of doxycycline by broth microdilution assay relative to control. In kind it is functional.
Series [14] deals with Pseudomonas aeruginosa. Description: Potentiation of doxycycline-induced antibacterial activity against Pseudomonas aeruginosa 101243 assessed as fold change in doxycycline MIC at 9.8 uM incubated for 18 hrs in presence of doxycycline by broth microdilution assay relative to control. In kind it is functional.
For series [15], the system named is HepG2. Description: Cytotoxicity against human HepG2 cells assessed as cell viability at 50 uM incubated for 48 hrs in presence of chloramphenicol by prestoblue assay. The conditions noted are these: hepg2, 48 h. Format: cell-based.
Series [16] relates to HEK293. Briefly: Cytotoxicity against human HEK293 cells assessed as cell viability at 50 uM incubated for 48 hrs in presence of doxycycline by prestoblue assay. Particulars: hek293, 48 h. In kind it is cell-based.
Series [17] deals with Pseudomonas aeruginosa. Description: Potentiation of chloramphenicol-induced bactericidal activity against Pseudomonas aeruginosa PAO1 assessed as reduction in bacterial colonies incubated for >= 24 hrs in LB medium in presence of chloramphenicol followed by plating on agar plate and measured after 20 hrs by time-kill assay. In kind it is functional, organism-based. The conditions noted are these: dose 4.9-9.8 µM, time hrs >=44.

In series [18] the test system is Pseudomonas aeruginosa. Briefly: Antibacterial activity against wild type Pseudomonas aeruginosa PAO1 assessed as reduction in bacterial growth by measuring chloramphenicol MIC at 8 ug/ml incubated for 18 hrs in presence of chloramphenicol by broth microdilution assay (reference value: 32 ug/ml). In kind it is functional. Particulars: dose 8 µg/ml.
The subject of series [19] is Pseudomonas aeruginosa. Description: Antibacterial activity against Pseudomonas aeruginosa 262-101856 assessed as reduction in bacterial growth by measuring chloramphenicol MIC at 16 ug/ml incubated for 18 hrs in presence of chloramphenicol by broth microdilution assay (reference value: 2048 ug/ml). The conditions noted are these: dose 16 µg/ml. Format: functional.

Series [20] deals with Pseudomonas aeruginosa. Briefly: Antibacterial activity against Pseudomonas aeruginosa 259-96918 assessed as reduction in bacterial growth by measuring chloramphenicol MIC at 2 ug/ml incubated for 18 hrs in presence of chloramphenicol by broth microdilution assay (reference value: 1024 ug/ml). The conditions noted are these: dose 2 µg/ml. In kind it is functional.
Series [21] has as its system Pseudomonas aeruginosa. Briefly: Antibacterial activity against Pseudomonas aeruginosa 264-101354 assessed as reduction in bacterial growth by measuring doxycycline MIC at 4 ug/ml incubated for 18 hrs in presence of doxycycline by broth microdilution assay (reference value: 64 ug/ml). In kind it is functional. Particulars: dose 4 µg/ml.
The test system of series [22] is Pseudomonas aeruginosa. Description: Antibacterial activity against Pseudomonas aeruginosa 100036 assessed as potentiation of doxycycline-induced antibacterial activity by measuring doxycycline MIC at 7.6 uM incubated for 18 hrs in presence of doxycycline by broth microdilution assay (reference value: 64 ug/ml). Format: functional.
Series [23] relates to Pseudomonas aeruginosa. Briefly: Antibacterial activity against Pseudomonas aeruginosa 264-101354 assessed as potentiation of chloramphenicol-induced antibacterial activity by measuring chloramphenicol MIC at 7.6 uM incubated for 18 hrs in presence of chloramphenicol by broth microdilution assay (reference value: 4096 ug/ml). In kind it is functional.
The test system of series [24] is Pseudomonas aeruginosa. Briefly: Antibacterial activity against Pseudomonas aeruginosa 262-101856 assessed as potentiation of doxycycline-induced antibacterial activity by measuring doxycycline MIC at 7.6 uM incubated for 18 hrs in presence of doxycycline by broth microdilution assay (reference value: 1024 ug/ml). Format: functional.
The test system of series [25] is Pseudomonas aeruginosa. Briefly: Potentiation of doxycycline-induced antibacterial activity against Pseudomonas aeruginosa 260-97103 assessed as fold change in doxycycline MIC at 7.6 uM incubated for 18 hrs in presence of doxycycline by broth microdilution assay relative to control. In kind it is functional.
The test system of series [26] is Pseudomonas aeruginosa. Briefly: Potentiation of chloramphenicol-induced antibacterial activity against Pseudomonas aeruginosa 259-96918 assessed as fold change in chloramphenicol MIC at 7.6 uM incubated for 18 hrs in presence of chloramphenicol by broth microdilution assay relative to control. In kind it is functional.
Series [27] has as its system Acinetobacter baumannii. Briefly: Potentiation of chloramphenicol-induced antibacterial activity against Acinetobacter baumannii ATCC 17978 assessed as fold change in chloramphenicol MIC at 7.6 uM incubated for 18 hrs in presence of chloramphenicol by broth microdilution assay relative to control. In kind it is functional.
The subject of series [28] is Pseudomonas aeruginosa. Description: Antibacterial activity against wild type Pseudomonas aeruginosa PAO1 assessed as reduction in bacterial growth by measuring chloramphenicol MIC at 0.25 ug/ml incubated for 18 hrs in presence of chloramphenicol by broth microdilution assay (reference value: 32 ug/ml). In kind it is functional. The conditions noted are these: dose 0.25 µg/ml.

Series [29] relates to Pseudomonas aeruginosa. Description: Antibacterial activity against Pseudomonas aeruginosa 100036 assessed as reduction in bacterial growth by measuring chloramphenicol MIC at 8 ug/ml incubated for 18 hrs in presence of chloramphenicol by broth microdilution assay (reference value: 1024 ug/ml). Format: functional. The conditions noted are these: dose 8 µg/ml.
For series [30], the system named is Pseudomonas aeruginosa. Description: Antibacterial activity against Pseudomonas aeruginosa 260-97103 assessed as fractional inhibitory concentration incubated for 18 hrs in presence of doxycycline by broth microdilution assay. In kind it is functional.
The test system of series [31] is Pseudomonas aeruginosa. Briefly: Antibacterial activity against Pseudomonas aeruginosa 100036 assessed as reduction in bacterial growth by measuring doxycycline MIC at 8 ug/ml incubated for 18 hrs in presence of doxycycline by broth microdilution assay (reference value: 64 ug/ml). In kind it is functional. The conditions noted are these: dose 8 µg/ml.

For orientation: MIC means the lowest concentration that inhibits growth of the organism. Regarding `CO[C@H]1/C=C/O[C@@]2(C)Oc3c(C)c(O)c4c(O)c(c(/C=N/N5CCN(Cc6cn(CCCCCCO[C@@H]7[C@@H](O[C@H]8O[C@H](CO)[C@@H](O)[C@H](N)[C@H]8O)[C@H](N)C[C@H](N)[C@H]7O[C@H]7O[C@H](CN)[C@@H](O)C[C@H]7N)nn6)CC5)c(O)c4c3C2=O)NC(=O)/C(C)=C\C=C\[C@H](C)[C@H](O)[C@@H](C)[C@@H](O)[C@@H](C)[C@H](OC(C)=O)[C@@H]1C.Cl.Cl.Cl.Cl.Cl`, the MIC in series [1] came to 0.25 µg/mL. For the same compound, the FIC in [2] is 0.063; in [3], under 0.125; in series [4], under 0.125; in series [5] it was 0.063; in [6], 0.063. The “fractional inhibitory concentration index (FICI)” value in [7] is listed as 0.13; in [8], under 0.16; in series [9] it was 0.08; in series [10], 1.13; in series [11], under 0.53. Further, the Activity entry in [12] is “Dose-dependent effect”; in series [15], “Non-Toxic”; in series [16], “Non-Toxic”; in series [17], “Dose-dependent effect”. Besides, the “fold change (FC)” value in series [13] and in [14] was 4 each time.
In the case of `CO[C@H]1/C=C/O[C@@]2(C)Oc3c(C)c(O)c4c(O)c(c(/C=N/N5CCN(C)CC5)c(O)c4c3C2=O)NC(=O)/C(C)=C\C=C\[C@H](C)[C@H](O)[C@@H](C)[C@@H](O)[C@@H](C)[C@H](OC(C)=O)[C@@H]1C` [RIFAMPIN], the MIC was 32 µg/mL in series [18], 2050 µg/mL in series [19], 1020 µg/mL in [20] and 32 µg/mL in series [21].
Regarding `CO[C@H]1/C=C/O[C@@]2(C)Oc3c(C)c(O)c4c(O)c(c(/C=N/N5CCN(Cc6cn(CCCCCCCCCCCCO[C@@H]7[C@@H](O[C@H]8O[C@H](CO)[C@@H](O)[C@H](N)[C@H]8O)[C@H](N)C[C@H](N)[C@H]7O[C@H]7O[C@H](CN)[C@@H](O)C[C@H]7N)nn6)CC5)c(O)c4c3C2=O)NC(=O)/C(C)=C\C=C\[C@H](C)[C@H](O)[C@@H](C)[C@@H](O)[C@@H](C)[C@H](OC(C)=O)[C@@H]1C.O=C(O)C(F)(F)F.O=C(O)C(F)(F)F.O=C(O)C(F)(F)F.O=C(O)C(F)(F)F.O=C(O)C(F)(F)F`, the MIC in [22] was found to be 0.5 µg/mL; in series [23] it was 128 µg/mL; in [24] it was 8 µg/mL. The “fold change (FC)” value in [25] was 4; in [26], 4; in [27], 0.
With `NC[C@H]1O[C@H](O[C@H]2[C@H](O)[C@@H](O[C@H]3O[C@H](CO)[C@@H](O)[C@H](N)[C@H]3O)[C@H](N)C[C@@H]2N)[C@H](N)C[C@@H]1O` [TOBRAMYCIN], the figures for the MIC in [28], in series [29] and in series [31] were 32 µg/mL, 1020 µg/mL and 64 µg/mL, respectively. Further, the FIC in series [30] is 0.5.
